# Experimental data: ChEMBL document CHEMBL4130457, “Discovery of AZD-2098 and AZD-1678, Two Potent and Bioavailable CCR4 Receptor Antagonists” (ACS Med Chem Lett, 2017)
# Active and inactive are the calls of the source. The rule behind the calls is not given here.
# Experiments:
# [1] = Oral bioavailability in dog at 9 umol/kg; format: ADME, organism-based, Canis lupus familiaris; conditions: in vivo
# [2] = Terminal trough concentration in OVA-induced Brown Norway rat plasma at 3 umol/kg, po bid measured 12 hrs post last dose; format: ADME, organism-based; conditions: read-out: Cmin
# [3] = Antagonist activity at rat CCR4
# Rattus norvegicus [4] = test: Antiinflammatory activity in OVA-induced Brown Norway rat lung assessed as reduction in leukocyte trafficking in microvasculature administered po bid 1 hr prior to antigen challenge and every 12 hrs prior to termination 96 hrs post challenge by histopathological analysis; format: functional, organism-based
# [5] = Ratio of free plasma concentration in Brown Norway rat at 7.5 umol/kg to pIC50 for recombinant human CCR4 expressed in CHO-K1 cells; format: ADME, cell-based; conditions: in vivo
# [6] = Volume of distribution at steady state in rat at 9 umol/kg, po or 3 umol/kg, iv; format: ADME, organism-based; conditions: in vivo, read-out: Vdss
# [7] = Clearance in rat at 9 umol/kg, po or 3 umol/kg, iv; format: ADME, organism-based; conditions: in vivo
# [8] = Lipophilicity, log D of the compound; format: physicochemical; conditions: octanol/water
# [9] = Volume of distribution at steady state in dog at 9 umol/kg, po or 3 umol/kg, iv; format: ADME, organism-based, Canis lupus familiaris; conditions: in vivo, read-out: Vdss
# [10] = Protein binding in human plasma; format: ADME, cell-free; conditions: read-out: PPB (converted)
# [11] = target: T1, C-C chemokine receptor type 4 (Canis lupus familiaris, UniProt Q8MJW8); test: Antagonist activity at dog CCR4
# T1 sequence (Q8MJW8 whole entry): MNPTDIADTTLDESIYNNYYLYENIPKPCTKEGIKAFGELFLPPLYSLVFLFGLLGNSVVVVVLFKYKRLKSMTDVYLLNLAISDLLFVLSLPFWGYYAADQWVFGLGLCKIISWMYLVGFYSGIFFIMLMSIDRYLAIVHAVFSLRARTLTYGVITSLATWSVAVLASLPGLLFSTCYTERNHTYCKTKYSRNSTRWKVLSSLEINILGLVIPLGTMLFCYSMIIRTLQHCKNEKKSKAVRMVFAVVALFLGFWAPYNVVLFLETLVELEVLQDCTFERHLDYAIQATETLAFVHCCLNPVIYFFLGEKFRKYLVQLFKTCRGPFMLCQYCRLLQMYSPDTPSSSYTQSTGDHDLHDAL
# [12] = target: T2, C-C chemokine receptor type 4 (Homo sapiens, UniProt P51679); test: Antagonist activity at human CCR4 expressed in CHO cells coexpressing CD4+ assessed as inhibition of CCL22 induced Ca2+ mobilization; format: functional, cell-based
# T2 sequence (P51679 whole entry): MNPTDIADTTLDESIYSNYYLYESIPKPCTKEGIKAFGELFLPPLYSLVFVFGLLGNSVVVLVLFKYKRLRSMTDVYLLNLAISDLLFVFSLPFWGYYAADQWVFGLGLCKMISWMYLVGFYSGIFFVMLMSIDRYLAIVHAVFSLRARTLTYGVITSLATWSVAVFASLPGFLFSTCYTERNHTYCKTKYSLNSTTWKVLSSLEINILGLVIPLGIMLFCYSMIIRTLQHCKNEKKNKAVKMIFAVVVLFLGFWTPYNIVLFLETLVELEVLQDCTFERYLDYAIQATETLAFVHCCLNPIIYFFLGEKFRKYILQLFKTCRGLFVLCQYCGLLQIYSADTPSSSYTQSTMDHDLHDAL
# Rattus norvegicus [13] = test: Terminal trough concentration in OVA-induced Brown Norway rat plasma at 0.22 to 2.2 umol/kg, po bid measured 12 hrs post last dose; format: ADME, organism-based; conditions: in vivo, BLD = below limit of detection
# [14] = Ratio of free plasma concentration in Brown Norway rat at 3 umol/kg to pIC50 for recombinant human CCR4 expressed in CHO-K1 cells; format: ADME, cell-based; conditions: in vivo
# [15] = target: T2, C-C chemokine receptor type 4; test: Antagonist activity at recombinant human CCR4 expressed in CHO-K1 cells assessed as inhibition of CCL22 induced Ca2+ mobilization after 2 hrs by FMAT based fluorescence assay; format: functional, cell-based
# [16] = target: C-C chemokine receptor type 5 (Homo sapiens) (UniProt P51681); test: Antagonist activity at CCR5 (unknown origin) at 10 uM; format: functional
# Chain of C-C chemokine receptor type 5 (Homo sapiens) (P51681 whole entry, looked up): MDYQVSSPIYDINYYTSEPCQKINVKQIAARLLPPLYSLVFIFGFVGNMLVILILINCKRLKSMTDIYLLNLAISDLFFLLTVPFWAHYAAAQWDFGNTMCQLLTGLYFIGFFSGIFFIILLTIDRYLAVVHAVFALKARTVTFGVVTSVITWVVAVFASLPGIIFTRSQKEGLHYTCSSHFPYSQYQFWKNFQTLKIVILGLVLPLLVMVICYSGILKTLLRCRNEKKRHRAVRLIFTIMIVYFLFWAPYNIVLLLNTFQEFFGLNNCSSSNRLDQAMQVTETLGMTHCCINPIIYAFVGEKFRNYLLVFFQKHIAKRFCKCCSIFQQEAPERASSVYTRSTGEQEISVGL
# [17] = Oral bioavailability in rat at 9 umol/kg; format: ADME, organism-based; conditions: in vivo
structure (smiles),measurement,setting,value
COc1nccnc1NS(=O)(=O)c1cccc(Cl)c1Cl,bioavailability,[1],100%
same,concentration at 12 h,[2],33 nM
same,pIC50,[3],8
same,Activity,Rattus norvegicus [4],Dose-dependent effect
same,Ratio,[5],3
same,Vd,[6],0.2 L/kg
same,clearance,[7],2 mL/min/kg
same,logD,[8],0.35
same,Vd,[9],0.1 L/kg
same,fraction unbound,[10],0.011
same,IC50,[11],0.0251 µM
same,IC50,[12],0.0316 µM
same,Cmin,Rattus norvegicus [13],Bld
same,Ratio,[14],0.6
same,IC50,[15],0.0158 µM
same,Activity,[16],inactive
same,bioavailability,[17],100%
